Measured values from PubChem BioAssay AID652177 (Vanderbilt Specialized Chemistry Center, 2013).

Target: High affinity choline transporter 1 (Homo sapiens) (UniProt Q9GZV3)
Test: inhibition of SLC5A7-mediated choline transport – cell-based, HEK-293 hCHT, [3H]-choline uptake, dose response (AID 652177)
Conditions: 15 min, IC50 at 10 uM choline

High affinity choline transporter 1 (Homo sapiens), sequence (Q9GZV3 whole entry, looked up): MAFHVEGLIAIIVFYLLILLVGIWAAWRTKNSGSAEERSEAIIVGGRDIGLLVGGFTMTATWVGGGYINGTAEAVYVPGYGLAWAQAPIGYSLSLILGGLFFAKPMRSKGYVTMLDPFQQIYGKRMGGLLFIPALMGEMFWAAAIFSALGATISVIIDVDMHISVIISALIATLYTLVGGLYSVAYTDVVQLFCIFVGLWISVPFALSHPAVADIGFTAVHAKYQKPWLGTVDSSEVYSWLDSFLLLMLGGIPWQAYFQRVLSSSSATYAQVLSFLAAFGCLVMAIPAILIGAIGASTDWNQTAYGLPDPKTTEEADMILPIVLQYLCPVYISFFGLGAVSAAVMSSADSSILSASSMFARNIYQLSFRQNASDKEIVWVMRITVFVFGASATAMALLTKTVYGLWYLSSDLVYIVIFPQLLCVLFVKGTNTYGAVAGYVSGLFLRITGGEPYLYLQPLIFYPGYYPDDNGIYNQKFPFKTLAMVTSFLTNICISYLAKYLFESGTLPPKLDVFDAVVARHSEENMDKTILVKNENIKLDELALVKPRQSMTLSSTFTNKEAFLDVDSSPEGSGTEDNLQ

IC50: 2210 nM
Compound: CCc1cc(CNC(=O)c2ccc(OC)c(OCCN3CCCCC3)c2)on1
